Data set [1] in a line: Anticoagulation: PT and aPTT after i.p. dosing. Particulars: for PT / aPTT / anticoagulant effect (PT, aPTT) at 3 h: C57Bl/6 mice, 2 mg/kg i.p.; for PT / aPTT: 1 h; for anticoagulation (PT and aPTT) with NOS blockade: L-NAME 50 mg/kg 30 min prior to collection, SERM 2 mg/kg 1 h prior. It is filed as in vivo, mouse. As to the method: Figure 6 Effect of SERMs and NO-SERM on […] clotting cascades. Blood was collected by cardiac puncture and PTT and aPTT were determined 1 or 3 h after i.p. drug administration (2 mg/kg).
SERMs were injected (i.p.) into 6–8 month old male C57Bl/6 mice 1 h before blood collection, and L-NAME was injected (i.p.) 30 min before blood collection. The mouse was sedated by exposing it to CO2 until unconscious and blood was collected in 4.5 mL BD Vacutainer Glass Evacuated Blood Collection Tubes (with 0.105 M buffered sodium citrate) by cardiac puncture. The blood samples were centrifuged at 300 g for 30 min to separate the plasma from the blood, and then 200 uL of plasma was taken from each sample and the PT and aPTT were measured using an ACL 7000 Coagulation Analyzer. The analyzer injects […] of PT-fibrinogen (lyophilized rabbit brain calcium thromboplastin with stabilizers, polybrene, buffer and preservatives) to 75 µL of plasma sample to measure the PT, and 75 µL of synthAFAX (0.025 M)+100 µL of CaCl2 (0.02 M) were added to 75 µL of plasma to measure aPTT. The analysis was at 37°C using a photo sensor at λ = 671 nm.

In data set [2] the test system is C57Bl/6 mice or eNOS(−/−) mice. Kind of data set: Step-through passive avoidance (STPA) memory model. The settings on record: SERM 2 mg/kg; for reversal of scopolamine-induced memory deficit (STPA latency): scopolamine 1 mg/kg i.p., tested 24 h after training; for reversal of scopolamine-induced memory deficit in eNOS KO mice (STPA): scopolamine 1 mg/kg. The class given is in vivo, mouse. As to the method:
In this assay, memory is tested 24 h after training and since drugs are only administered during training, any side effects, such as sedation, are highly unlikely to confound the testing results. Furthermore, criteria for training are uniform across all treatment groups. Previously, we have shown NO-donors to reverse cognitive deficits induced by attenuation of cholinergic signaling, [51], [52], [53].
Amnestic memory deficit was induced by i.p. injection of either scopolamine (1 mg/kg) or L-NAME (50 mg/kg) 30 min prior to training in C57Bl/6 male mice. SERMs (2 mg/kg) were given 20 min prior to training and latency was assessed 24 h after training with animals being removed from the task if latency >300 s. All SERMs, except F-DMA, restored scopolamine-induced deficits in STPA in C57Bl/6 animals.
All experiments were performed either on 6–8 month old male C57B1/6 mice or eNOS(−/−) animals. Scopolamine (1 mg/kg) or L-NAME (50 mg/kg) were injected (i.p.) 30 min prior to training, while SERMs (2 mg/kg) were injected 20 min prior to training. Mice were placed in the light compartment of the light/dark box, and as soon as they entered the dark compartment, they received an electric shock (0.5 mA, 60 Hz for 2 seconds). This training was repeated until latency to enter the dark side reached 300 s. At 24 h post-training, animals were individually placed in the light compartment and the latency to enter the dark compartment was recorded with a 300 s cutoff. Details of this widely used assay of behavior have been discussed previously for NO-donor compounds [53], [54], [55].

The target in the next data set is ERβ (Homo sapiens, UniProt Q92731). Kind of data set: ER binding affinity by competitive E2 displacement (ERβ). As to the method: Raloxifene and DMA are structurally related SERMs acting as antagonists of estrogen action in mammary and endometrial cells. […] ER binding affinity was measured by competitive E2 displacement as previously described.
Chain of ERβ (Q92731 whole entry, species assumed): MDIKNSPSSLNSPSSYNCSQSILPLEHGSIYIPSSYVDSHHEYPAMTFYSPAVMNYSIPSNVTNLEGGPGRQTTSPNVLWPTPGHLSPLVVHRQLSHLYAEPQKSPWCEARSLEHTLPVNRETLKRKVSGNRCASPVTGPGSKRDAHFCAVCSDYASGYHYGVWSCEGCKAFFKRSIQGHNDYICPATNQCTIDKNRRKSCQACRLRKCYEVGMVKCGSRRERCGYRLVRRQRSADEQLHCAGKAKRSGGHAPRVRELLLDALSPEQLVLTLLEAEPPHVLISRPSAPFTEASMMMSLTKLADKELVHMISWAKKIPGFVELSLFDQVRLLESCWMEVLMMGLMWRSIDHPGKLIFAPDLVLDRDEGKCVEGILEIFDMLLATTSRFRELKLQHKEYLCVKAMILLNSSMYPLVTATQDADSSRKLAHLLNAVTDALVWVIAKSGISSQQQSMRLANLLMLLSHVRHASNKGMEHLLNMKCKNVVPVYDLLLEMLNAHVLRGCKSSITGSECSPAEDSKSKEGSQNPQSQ
The next data set has as its system isolated rings of aortae. Description: Aortic ring relaxation. The arrangement: species or system rat. As to the method: Isolated rings of aortae from male Sprague-Dawley rats (250–300 g) were prepared for isometric tension measurements and were equilibrated for 1 h at an optimal resting tension of 10 mN. Tissues were contracted submaximally with 0.3 µM phenylepinephrine, and after 10–15 m cumulative concentration-response curves for SERMs (0.01–30 µM) were obtained. Some aortic ring preparations were denuded of the endothelium, or were treated with 100 µM L-NAME, prior to assessment of SERM-induced relaxation responses.

The target in another data set is T1, ERα (Homo sapiens, UniProt P03372).
T1 sequence (P03372 1-595): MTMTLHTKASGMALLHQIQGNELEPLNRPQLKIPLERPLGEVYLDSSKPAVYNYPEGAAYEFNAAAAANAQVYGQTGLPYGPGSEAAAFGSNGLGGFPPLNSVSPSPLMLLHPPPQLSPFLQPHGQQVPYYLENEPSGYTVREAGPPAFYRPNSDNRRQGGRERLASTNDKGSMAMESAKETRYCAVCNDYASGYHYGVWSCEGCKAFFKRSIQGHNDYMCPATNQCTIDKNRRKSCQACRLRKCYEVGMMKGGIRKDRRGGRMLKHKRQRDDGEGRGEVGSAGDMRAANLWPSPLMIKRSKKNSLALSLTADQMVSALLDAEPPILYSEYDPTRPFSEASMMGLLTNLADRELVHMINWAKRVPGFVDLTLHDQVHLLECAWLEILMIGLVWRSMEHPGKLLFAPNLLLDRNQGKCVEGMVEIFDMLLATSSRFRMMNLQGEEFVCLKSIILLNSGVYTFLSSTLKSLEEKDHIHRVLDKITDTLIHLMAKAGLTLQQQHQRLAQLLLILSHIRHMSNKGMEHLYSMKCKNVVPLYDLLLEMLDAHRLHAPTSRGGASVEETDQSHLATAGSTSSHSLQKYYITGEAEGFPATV
Description: ER binding affinity by competitive E2 displacement (ERα). As to the method: ER binding affinity was measured by competitive E2 displacement as previously described.

The format of data set [3] is in vivo. Particulars: mouse, ip, 5 mg/kg. As to the method: All experiments were performed on 6–8 month male C57B1/6 mice (Charles River Laboratory) or eNOS(−/−) animals. Animals were injected (i.p.) at various time points before sacrifice at the doses specified. After euthanasia via CO2, plasma was collected, and cortices and hippocampi were collected after PBS perfusion and stored at −80°C. Tissue samples were weighed and extracted with methanol. Plasma samples were extracted with cold acetonitrile. Quantitative analysis of drug concentrations in plasma and brain used internal standards spiked into plasma and brain homogenates before liquid extraction with acetonitrile or methanol, and separation and measurement was performed with LC-MS/MS tandem mass spectrometry. The supernatant (deproteinized) was analyzed by chemiluminescence with SIEVERS 280i nitric oxide analyzer.
Figure S3: SERM bioavailability in plasma and CNS of WT and eNOS (-/-) mice. […] (n=4).

Each structure is given as a SMILES string. Read-outs that look alike come from different tables or passages of the source.

Turning to `O=[N+]([O-])OCCCC1CCN(CCOc2ccc(Oc3c(-c4ccc(O)cc4)sc4cc(O)ccc34)cc2)CC1` [NO-DMA, 3-(1-(2-(4-(6-hydroxy-2-(4-ydroxyphenyl)benzo[b]thiophen-3-yloxy)phenoxy)ethyl)piperidin-4-yl)propyl nitrate], in data set [1], the PT entry was “significantly increased PT”; the aPTT entry is given as “significantly increased aPTT”; the “anticoagulant effect (PT, aPTT) at 3 h” value was “remained significantly higher than control”; the “anticoagulation (PT and aPTT) with NOS blockade” value is “significantly increased anticoagulation compared to control in both PT and aPTT”. Also, the “reversal of L-NAME-induced cognitive deficit (STPA latency)” value in data set [2] (C57Bl/6 male mice, L-NAME 50 mg/kg i.p.) was “reversed by NO-DMA”. In addition, the “reversal of scopolamine-induced memory deficit (STPA latency)” value in data set [2] (C57Bl/6 male mice) was “complete reversal of the memory deficit”. Also, the “reversal of scopolamine-induced memory deficit in eNOS KO mice (STPA)” value in data set [2] is “significantly improved memory”. The IC50 (in general, the concentration at which inhibition is half-maximal) at ERβ worked out at 24.4 ± 9.6 nM. Moreover, the EC50 (in general, the concentration needed to bring the measured effect to its halfway point) in the data set with isolated rings of aortae (endothelium-denuded tissues, read-out: EC50 for relaxation, endothelium-denuded) was found to be 900 ± 690 nM. In the data set on isolated rings of aortae (intact aortic rings), the “efficacy (maximal relaxation)” value was around 100 % relaxation and the “potency relative to DMA” value is reported as “at least ten-fold increased potency”. Moreover, the EC50 in the data set on isolated rings of aortae (intact aortic rings, read-out: EC50 for relaxation) worked out at 130 ± 90 nM. In addition, the EC50 with isolated rings of aortae (tissues treated with L-NAME 100 µM, read-out: EC50 for relaxation, L-NAME) is 1000 ± 540 nM. This compound showed an IC50 at ERα of 21.4 ± 6.7 nM.
Consider `Oc1ccc(-c2sc3cc(O)ccc3c2Oc2ccc(OCCN3CCCCC3)cc2)cc1` [DMA, desmethylarzoxifene], for which, in data set [1], the PT entry is recorded as “showed a clear trend”; the aPTT entry is “significantly increased aPTT”; the “anticoagulant effect (PT, aPTT) at 3 h” value was “decreased to that of control samples”; the “anticoagulation (PT and aPTT) with NOS blockade” value is listed as “did not persist in the presence of NOS blockade”. Also, the “reversal of scopolamine-induced memory deficit (STPA latency)” value in data set [2] (C57Bl/6 male mice) was “complete reversal of the memory deficit”. Moreover, in data set [2], the “reversal of scopolamine-induced memory deficit in eNOS KO mice (STPA)” value is “not influenced by treatment with DMA”. The same compound returned an IC50 on ERβ of 9.6 ± 1.9 nM. In addition, the “bioavailability in plasma and CNS” value in data set [3] (in vivo) was “substantial bioavailability with preferential retention in the hippocampus up to 2 h after administration”. Besides, the “blood brain barrier permeability” value in data set [3] is given as “substantial blood brain barrier permeability”. Also, the “efficacy (maximal relaxation)” value in the data set with isolated rings of aortae (intact aortic rings) is recorded as around 100 % relaxation. Besides, the EC50 in the data set with isolated rings of aortae (intact aortic rings contracted with phenylepinephrine, mean, S.D., read-out: EC50 for relaxation) stood at 3500 ± 2500 nM. In addition, the “efficacy after endothelium removal or NOS inhibition” value in the data set on isolated rings of aortae (physical removal of the endothelium or L-NAME) is given as “significant decrease in the efficacy”.

(Values after publication PMC3745399, “An NO Donor Approach to Neuroprotective and Procognitive Estrogen Therapy Overcomes Loss of NO Synthase Function and Potentially Thrombotic Risk” (PLoS ONE, 2013).)
